The target in the test is T1, Integrin protein αvβ3 (Homo sapiens, UniProt P05106+P06756).
T1 construct: purchased Chemicon International, Inc., Temecula, Calif., USA
In words: Receptor/ligand challenge assay of biotinylated vitronectin binding to plate-coated integrin αvβ3 (chemiluminescence). The following applies: for IC50: competition with biotinylated vitronectin for coated αvβ3, 3 hours at room temperature, quadruplicate, 0.00316-1000 nM; for IC50 Ratio Relative to Hood et al.: ratio of IC50 versus the Hood et al. antagonist in the same assay. As to the method:
Receptor/Ligand Challenge Assay of Vitronectin to Integrin αvβ3 Receptor Antagonists in the Presence of Test Compounds
The title compounds of Examples 1 through 8 were tested for their activity as αvβ3 receptor antagonists by the procedure described below, and the buffers, solutions, and reagents used in the procedure are listed following the procedure.
Procedure. Integrin protein αvβ3 (purchased from Chemicon International, Inc., Temecula, Calif., USA) was diluted to a final concentration of 1 μg/mL in coating buffer (2.1). The αvβ3 coating solution was applied to 96-well polystyrene microtiter plate at 100 μL/well. (A total of 10 mL is needed to coat one 96-well plate). The plates were then sealed and allowed to incubate at 4° C. for at least 8 hours. The coating solution was then removed and the plate was washed two times with 300 μL/well of washing solution (2.2). Blocking buffer (2.3) was then added in amounts of 150 μL/well and the plate was incubated at room temperature for 2 hours. The blocking buffer was then removed, and the integrin antagonistic substances (117 μL of 1.25 μM (in H2O)) were added in quadruplicate to column 1 of the twelve well columns of the plate. For example, 117 μL of 1.25 μM 4-[2-(3,4,5,6-tetrahydropyrimidin-2 ylamino)ethyloxy]benzoyl-2-(S)-aminoethylsulfonylamino-β-alanine, the antagonist described by Hood et al. referenced above was added to column 1, rows A-D and 117 μL of 1.25 μM of the antagonist of Example 1 was added to column 1, […]. Binding buffer (2.4) (80 μL) was added to the remaining wells of the plate (column 2-12, rows A-F). A multichannel pipet was used to transfer 37 μL aliquots of the solutions from column 1 to column 2. The solutions were then mixed in the column 2 wells by drawing them up and down in the pipet 15 times. Solutions (37 μL) were then transferred from column 2 to column 3 and mixed by being drawn up and down in the pipet 15 times. The process was repeated across the columns to column 12, and the last 37 μL of solution was discarded. Biotinylated Vitronectin solution (2.5) was then added (20 μL/well, 0.1 μg/well). The final volume was 100 μL total per well, and the concentrations (nM) of analytes in columns 1-12 respectively were as follows: 1000, 316, 100, 31.6, 10.0, 3.16, 1.00, 0.316, 0.100, 0.0316, 0.01, and 0.00316.
The plate was agitated for thorough mixing of the solutions, then covered and incubated at room temperature for 3 hours. The solutions were then discarded and the plate was washed 3 times with 170 μL/well of washing solution (2.2). NeutrAvidin-HRP solution (2.6) was then added (100 μL/well, 0.01 μg/well), cover, and the plate was incubated at room temperature for 30 minutes. The solutions in the wells were then discarded and the plate was washed 3 times with 170 μL/well of washing solution (2.2). Chemiluminescent Substrate solution (2.7) was then added to the plate (100 μL/well), and the luminescence was read using the Wallac Victor 1420 Multilabel Counter (PerkinElmer, Inc., Boston, Mass., USA). A plot of average luminescence vs. concentration was generated using KaleidaGraph (version 3.5) software and the IC50 values were calculated using the following formula: Max−Max*M0^m1/(m2^m1+M0^m1);m1=1;m2=1, where Max is the maximum luminescence observed.
The results are expressed in the table below, both in terms of the 50% inhibitory concentration (IC50) of each test compound and the ratio of 50% inhibitory concentration (IC50) of the test compound to that of the Hood et al. antagonist 4-[2-(3,4,5,6-tetrahydropyrimidin-2-ylamino)ethyloxy]benzoyl-2-(S)-aminoethylsulfonylamino-β-alanine.

The values that follow come from patent US7300940B2, “Integrin α-v β-3 antagonists for use in imaging and therapy” (The United States of America, as represented by the …, priority 2004, dated 2007).

Where a name gives a salt, the structure may show the parent alone.

T1 sequence (P06756 31-889 limits assumed): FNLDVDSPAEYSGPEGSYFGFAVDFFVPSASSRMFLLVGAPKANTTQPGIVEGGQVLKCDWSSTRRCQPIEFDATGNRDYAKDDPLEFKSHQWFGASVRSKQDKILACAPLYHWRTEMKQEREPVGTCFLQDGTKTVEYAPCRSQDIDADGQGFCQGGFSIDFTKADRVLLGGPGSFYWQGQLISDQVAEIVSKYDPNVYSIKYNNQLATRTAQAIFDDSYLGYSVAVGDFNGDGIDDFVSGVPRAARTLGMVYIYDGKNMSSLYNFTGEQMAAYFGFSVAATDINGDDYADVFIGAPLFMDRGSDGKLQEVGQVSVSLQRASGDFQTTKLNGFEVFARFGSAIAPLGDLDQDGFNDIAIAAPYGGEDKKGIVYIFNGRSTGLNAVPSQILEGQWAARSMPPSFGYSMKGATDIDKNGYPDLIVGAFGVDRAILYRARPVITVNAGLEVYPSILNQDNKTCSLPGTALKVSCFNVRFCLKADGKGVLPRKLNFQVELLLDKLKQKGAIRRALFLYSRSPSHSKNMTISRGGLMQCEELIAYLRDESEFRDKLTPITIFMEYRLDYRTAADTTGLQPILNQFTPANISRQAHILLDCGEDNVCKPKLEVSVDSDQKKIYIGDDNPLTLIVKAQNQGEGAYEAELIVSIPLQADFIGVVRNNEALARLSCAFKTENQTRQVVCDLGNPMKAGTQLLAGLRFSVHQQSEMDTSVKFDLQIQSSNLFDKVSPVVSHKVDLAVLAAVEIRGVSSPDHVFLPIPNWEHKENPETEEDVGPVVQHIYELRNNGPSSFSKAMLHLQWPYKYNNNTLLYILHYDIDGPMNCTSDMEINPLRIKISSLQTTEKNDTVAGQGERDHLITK
T1 sequence (P06756 891-1048 limits assumed): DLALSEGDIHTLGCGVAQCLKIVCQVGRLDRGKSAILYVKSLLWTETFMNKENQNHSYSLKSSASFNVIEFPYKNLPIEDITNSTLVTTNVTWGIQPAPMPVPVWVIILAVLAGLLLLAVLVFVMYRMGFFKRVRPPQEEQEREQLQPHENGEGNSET
T1 sequence (P05106 27-788): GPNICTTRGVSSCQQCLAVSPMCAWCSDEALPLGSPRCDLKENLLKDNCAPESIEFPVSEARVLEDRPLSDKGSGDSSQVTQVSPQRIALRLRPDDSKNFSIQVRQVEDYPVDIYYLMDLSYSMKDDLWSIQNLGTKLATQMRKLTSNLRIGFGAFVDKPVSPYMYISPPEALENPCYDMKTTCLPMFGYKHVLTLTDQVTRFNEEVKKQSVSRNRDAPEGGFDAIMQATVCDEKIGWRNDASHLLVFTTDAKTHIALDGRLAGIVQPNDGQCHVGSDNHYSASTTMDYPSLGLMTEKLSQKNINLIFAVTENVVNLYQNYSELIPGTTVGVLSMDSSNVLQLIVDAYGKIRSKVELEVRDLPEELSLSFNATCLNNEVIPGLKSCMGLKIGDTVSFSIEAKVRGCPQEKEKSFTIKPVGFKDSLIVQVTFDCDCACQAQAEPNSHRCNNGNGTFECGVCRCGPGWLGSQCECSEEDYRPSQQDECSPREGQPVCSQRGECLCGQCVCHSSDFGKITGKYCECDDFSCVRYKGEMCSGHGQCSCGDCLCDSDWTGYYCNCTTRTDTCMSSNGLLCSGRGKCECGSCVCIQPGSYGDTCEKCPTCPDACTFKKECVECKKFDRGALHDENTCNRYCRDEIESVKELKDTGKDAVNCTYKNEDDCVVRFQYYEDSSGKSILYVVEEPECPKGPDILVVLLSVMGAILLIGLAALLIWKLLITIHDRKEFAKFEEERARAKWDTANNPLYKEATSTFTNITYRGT

Broadly, the IC50 is the concentration that gives 50% inhibition. Take `NCCCCOC(=O)NCCS(=O)(=O)N[C@@H](CNC(=O)c1ccc(OCCNC2=NCCCN2)cc1)C(=O)O` [Example 8, 4-[2-(3,4,5,6-Tetrahydropyrimidin-2-ylamino)ethyloxy]benzoyl-2-(S)-[N-(3-amino-butyl-1-carbamyl)]-aminoethylsulfonylamino-β-alanine]: the IC50 was found to be 3.13 ± 0.33 nM and the “IC50 Ratio Relative to Hood et al.” value is on record as 1.3 ± 0.5.

Turning to `NCCCOC(=O)NCCS(=O)(=O)N[C@@H](CNC(=O)c1ccc(OCCNC2=NCCCN2)cc1)C(=O)O` [Example 6], the 50% inhibitory concentration (IC50) was 6.68 ± 0.54 nM and the “IC50 Ratio Relative to Hood et al.” value stood at 3.6 ± 0.7.

For the molecule `CCCCOC(=O)NCCCCOC(=O)NCCS(=O)(=O)N[C@@H](CNC(=O)c1ccc(OCCNC2=NCCCN2)cc1)C(=O)O` [Example 7, 4-[2-(3,4,5,6-Tetrahydropyrimidin-2-ylamino)ethyloxy]benzoyl-2-(S)-[N-(3-butyloxycarbonylamino-butyl-1-carbamyl)]-aminoethylsulfonylamino-β-alanine], the IC50 is 1.34 ± 0.14 nM and the “IC50 Ratio Relative to Hood et al.” value is 10.8 ± 2.7.

Turning to `NCCS(=O)(=O)N[C@@H](CNC(=O)c1ccc(OCCNC2=NCCCN2)cc1)C(=O)O` [Hood et al., 4-[2-(3,4,5,6-tetrahydropyrimidin-2-ylamino)ethyloxy]benzoyl-2-(S)-aminoethylsulfonylamino-β-alanine, reference compound], the 50% inhibitory concentration (IC50) came out at 14.1 ± 1.4 nM.

For `NCCOC(=O)NCCS(=O)(=O)N[C@@H](CNC(=O)c1ccc(OCCNC2=NCCCN2)cc1)C(=O)O` [Example 4, 4-[2-(3,4,5,6-Tetrahydropyrimidin-2-ylamino)ethyloxy]benzoyl-2-(S)-[N-(3-amino-ethyl-1-carbamyl)]-aminoethylsulfonylamino-β-alanine], the IC50 was determined as 3.64 ± 0.3 nM and the “IC50 Ratio Relative to Hood et al.” value is recorded as 4.3 ± 0.6.

With `CC(C)(CN)COC(=O)NCCS(=O)(=O)N[C@@H](CNC(=O)c1ccc(OCCNC2=NCCCN2)cc1)C(=O)O` [Example 2, 4-[2-(3,4,5,6-Tetrahydropyrimidin-2-ylamino)ethyloxy]benzoyl-2-(S)-[N-(3-amino-neopenta-1-carbamyl)]-aminoethylsulfonylamino-β-alanine Hydrochloride], the IC50 was found to be 2.94 ± 0.19 nM and the “IC50 Ratio Relative to Hood et al.” value was found to be 7.0 ± 0.7.

Turning to `CCCCOC(=O)NCC(C)(C)COC(=O)NCCS(=O)(=O)N[C@@H](CNC(=O)c1ccc(OCCNC2=NCCCN2)cc1)C(=O)O` [Example 1, 4-[2-(3,4,5,6-Tetrahydropyrimidin-2-ylamino)ethyloxy]benzoyl-2-(S)-[N-(3-butyloxycarbonylamino-neopenta-1-carbamyl)]-aminoethylsulfonylamino-β-alanine], the IC50 came out at 0.72 ± 0.08 nM and the “IC50 Ratio Relative to Hood et al.” value is 17.3 ± 4.7.

As for `CCCCOC(=O)NCCCOC(=O)NCCS(=O)(=O)N[C@@H](CNC(=O)c1ccc(OCCNC2=NCCCN2)cc1)C(=O)O` [Example 5, 4-[2-(3,4,5,6-Tetrahydropyrimidin-2-ylamino)ethyloxy]benzoyl-2-(S)-[N-(3-butyloxycarbonylamino-propyl-1-carbamyl)]-aminoethylsulfonylamino-β-alanine], the concentration for half-maximal inhibition (IC50) worked out at 1.02 ± 0.12 nM and the “IC50 Ratio Relative to Hood et al.” value is 11.2 ± 2.4.

`CCCCOC(=O)NCCOC(=O)NCCS(=O)(=O)N[C@@H](CNC(=O)c1ccc(OCCNC2=NCCCN2)cc1)C(=O)O` [Example 3, 4-[2-(3,4,5,6-Tetrahydropyrimidin-2-ylamino)ethyloxy]benzoyl-2-(S)-[N-(3-butyloxycarbonylamino-ethyl-1-carbamyl)]-aminoethylsulfonylamino-β-alanine]: the IC50 came to 1.7 ± 0.2 nM and the “IC50 Ratio Relative to Hood et al.” value stood at 8.8 ± 3.5.
